Assay results from EP4353088A1, “COMPOSITIONS OR COMBINED PREPARATIONS OF ESSENTIAL OILS AND L-CARNITINE” (Servicio Andaluz de Salud, priority 2022, dated 2024).

Experiments:
[1] = tested on: gut microbiota; experiment: Fecal microbiota analysis by 16S rRNA gene sequencing in humanized gnotobiotic mice; assay type: in vivo
Protocol: A humanized gnotobiotic mouse model was developed through the fecal microbiota transplantation of human feces into germ-free mice. Prior to the transplantation procedure, 18-week-old mice (n = 40) were orally treated by gavage with 200 μL of antibiotic cocktail composed of vancomycin (5 mg mL^-1), neomycin, metronidazole and ampicillin 155 (10 mg mL^-1) in order to deplete the bacterial content. An all-bacteria qPCR was performed with universal 16S rRNA primers that detect a broad range of bacterial species to verify complete absence of detectable bacteria in the feces. Then, mice received a fecal microbiota transplantation from a selection of patients to recolonize the gastrointestinal tract, as previously described. Specifically, three patients with IHD, T2DM and high plasma levels of TMAO were eligible for feces donation. Fresh fecal samples were suspended in sterile phosphate buffered saline (PBS) and glycerol was added at 10 % (v/v) final concentration; then, samples were aliquoted into cryotubes and immediately stored at -80 °C. At the moment of the transplantation, aliquot samples from these patients were thawed in ice and mixed in equal quantities as a sample pool to guarantee that every mouse received a similar microbiota load. The sample pool was centrifuged for 2 minutes at 2,800 xg, and the supernatant was transferred to mice by oral gavage for three consecutive days according to previously published protocols. Mice were moved to clean cages every two days to minimize the coprophagia and to prevent reinoculation from old feces. […]

[2] = tested on: protein carbonyls and pentosidine; experiment: Protein carbonyls (AAS, GGS) and pentosidine in plasma (fluorescent HPLC); assay type: in vivo, mice; conditions: L-carnitine (0.02%, w/v) in drinking water for 40 days; carnitine group vs control group
Protocol: (§1) A humanized gnotobiotic mouse model was developed through the fecal microbiota transplantation of human feces into germ-free mice. Prior to the transplantation procedure, 18-week-old mice (n = 40) were orally treated by gavage with 200 µL of antibiotic cocktail composed of vancomycin (5 mg mL^-1), neomycin, metronidazole and ampicillin 155 (10 mg mL^-1) in order to deplete the bacterial content. An all-bacteria qPCR was performed with universal 16S rRNA primers that detect a broad range of bacterial species to verify complete absence of detectable bacteria in the feces.
(§2) Then, mice received a fecal microbiota transplantation from a selection of patients to recolonize the gastrointestinal tract, as previously described. Specifically, three patients with IHD, T2DM and high plasma levels of TMAO were eligible for feces donation. Fresh fecal samples were suspended in sterile phosphate buffered saline (PBS) and glycerol was added at 10 % (v/v) final concentration; then, samples were aliquoted into cryotubes and immediately stored at -80 °C. At the moment of the transplantation, aliquot samples from these patients were thawed in ice and mixed in equal quantities as a sample pool to guarantee that every mouse received a similar microbiota load. The sample pool was centrifuged for 2 minutes at 2,800 xg, and the supernatant was transferred to mice by oral gavage for three consecutive days according to previously published protocols. Mice were moved to clean cages every two days to minimize the coprophagia and to prevent reinoculation from old feces. […]

[3] = tested on: SCFA species; experiment: SCFA species in feces (GC-FID) of humanized gnotobiotic mice; assay type: in vivo; conditions: L-carnitine (0.02%, w/v) in drinking water for 40 days; carnitine group vs control group
Protocol: as §1
as §2, with “load.” for “load. The sample pool was centrifuged for 2 minutes at 2,800 xg, and the supernatant was transferred to mice by oral gavage for three consecutive days according to previously published protocols. Mice were moved to clean cages every two days to minimize the coprophagia and to prevent reinoculation from old feces.”

[4] = tested on: cytokines and chemokines; experiment: Cytokines and chemokines in plasma (ProcartaPlex 26-Plex); assay type: in vivo, mice; conditions: L-carnitine (0.02%, w/v) in drinking water for 40 days
Protocol: as §1
as §2, with “load.” for “load. The sample pool was centrifuged for 2 minutes at 2,800 xg, and the supernatant was transferred to mice by oral gavage for three consecutive days according to previously published protocols. Mice were moved to clean cages every two days to minimize the coprophagia and to prevent reinoculation from old feces.”

[5] = tested on: TMA and TMAO; experiment: L-carnitine, TMA and TMAO levels in plasma (LC-MS) of humanized gnotobiotic mice; assay type: in vivo; conditions: L-carnitine (0.02%, w/v) in drinking water for 40 days; carnitine group vs control group
Protocol: as §1, §2

[6] = tested on: cardiovascular disease markers; experiment: Cardiovascular markers in plasma (Mouse CVD Magnetic Bead Panel 1); assay type: in vivo, mice; conditions: L-carnitine (0.02%, w/v) in drinking water for 40 days; carnitine group vs control group
Protocol: as §1
as §2, with “load.” for “load. The sample pool was centrifuged for 2 minutes at 2,800 xg, and the supernatant was transferred to mice by oral gavage for three consecutive days according to previously published protocols. Mice were moved to clean cages every two days to minimize the coprophagia and to prevent reinoculation from old feces.”

[7] = genus level, fecal samples, among control, carnitine, savory, parsley and rosemary groups, 40 days

SMILES: C[N+](C)(C)C[C@H](O)CC(=O)[O-] [carnitine, L-carnitine]
- relative abundance at the family and genus levels ([1]; L-carnitine (0.02%, w/v) in drinking water for 40 days, carnitine group vs control group): no differences
- Chao1 index (alpha diversity) [1, 7]: no significant differences
- Shannon index (alpha diversity) [1, 7]: no significant differences
- plasma levels of AAS [2]: no significant effects
- plasma levels of GGS [2]: no significant effects
- plasma pentosidine levels [2]: no differences
- fecal levels of SCFA species (acetic, butyric and propionic acids) [3]: no significant differences
- plasma IFNγ levels ([4]; carnitine group vs control group): significant increase
- plasma CXCL10 levels ([4]; vs control group): significant increase
- plasma L-carnitine levels [5]: significant increase
- plasma TMA levels [5]: significant increase
- plasma TMAO levels [5]: no significant differences
- plasma cardiovascular disease markers (Se-selectin, sICAM-1, Precam-1, sP-selectin, PAI-1 and thrombomodulin) [6]: no significant differences
